The record followed here is patent US12466849B2, “Anti-viral and anti-tumoral compounds” (YEDA RESEARCH AND DEVELOPMENT CO. LTD, priority 2020, dated 2025).

Data set [1] deals with T1, Inosine-5′-Monophosphate Dehydrogenase 2 (IMPDH2) (Homo sapiens, UniProt P12268).
T1 construct: purchased BioVision (California, USA)
Kind of data set: IMPDH inhibitor screening assay (BioVision kit). The class given is biochemical. The conditions noted are these: IMPDH activity, colorimetric OD 450 nm.

Data set [2] has as its system JC virus (JCV). As to the kind of experiment: Secondary JCV assay (qPCR), COS7 cells. The note with it: secondary JCV assay, COS7 cells; for EC50 / EC90: 7 days, qPCR, test drug concentration 0.001-100 μM; for Activity: class by SI50.
Data set [3] relates to MOLT-3 cells.
For data set [4], the system named is MRC-5 cells.
In data set [5] the test system is HCMV AD169. As to the kind of experiment: HCMV plaque reduction assay, MRC-5 cells, strain AD169. In kind it is cell-based, Human cytomegalovirus. The conditions noted are these: hCMV AD169, MRC5 cells, plaque assay, 6-days duration. In general terms: Plaque reduction counts the foci of infection that form in a cell layer.
Data set [6] concerns HFF cells. As to the kind of experiment: Cell proliferation assay, human foreskin fibroblast (HFF) cells. The conditions noted are these: 72 h, cell number. The class given is cell-based.
Data set [7] relates to JC virus (JCV).
Data set [8] relates to Human cytomegalovirus (HCMV), strain AD169. The conditions noted are these: for EC50 / EC90: drug concentration 0.048-150 μM.
Data set [9] concerns BK virus (BKV), Gardner strain.
For data set [10], the system named is Venezuelan equine encephalitis virus (VEEV). Kind of data set: microbe, parasite or virus in culture. The note with it: Vero 76.
Data set [11] has the same test system.
Data set [12] concerns Influenza B.
Data set [13] relates to SARS-CoV.
Data set [14] relates to Zika virus. Kind of data set: microbe, parasite or virus in culture. The note with it: Vero 76.
In data set [15] the test system is Japanese encephalitis virus (JEV). As to the kind of experiment: microbe, parasite or virus in culture. The note with it: Vero 76.
Data set [16] in a line: in vitro. The note with it: African green monkey.
Data set [17] has as its system influenza A(H1N1). Kind of data set: microbe, parasite or virus in culture. The conditions noted are these: H1N1, MDCK.
Data set [18] deals with adenovirus-5 (Ad5).
Data set [19] concerns Rift Valley fever virus (RVFV). As to the kind of experiment: microbe, parasite or virus in culture. The note with it: Vero 76.
Data set [20] relates to SARS-CoV-2. The note with it: SARS-CoV-2; SI = CC50/EC50.
For data set [21], the system named is RSV. Kind of data set: microbe, parasite or virus in culture. The conditions noted are these: human respiratory syncytial virus, MA104.
For data set [22], the system named is Powassan virus (POWV). The conditions noted are these: POWV; SI = CC50/EC50.
In data set [23] the test system is influenza A(H1N1).
For data set [24], the system named is TCRV.
The test system of data set [25] is Rift Valley fever virus (RVFV).
In data set [26] the test system is influenza A(H5N1).
Data set [27] has as its system West Nile virus (WNV).
Data set [28] has as its system West Nile virus (WNV). As to the kind of experiment: microbe, parasite or virus in culture. The note with it: Vero 76.
The test system of data set [29] is enterovirus-68 (EV-68).
Data set [30] relates to adenovirus-5 (Ad5). Kind of data set: organism not typed. The note with it: A549.
In data set [31] the test system is Influenza B. As to the kind of experiment: microbe, parasite or virus in culture. The note with it: MDCK.
In data set [32] the test system is Yellow fever virus (YFV). Kind of data set: microbe, parasite or virus in culture. The conditions noted are these: Huh-7.
The test system of data set [33] is poliovirus-1 (POV-1). As to the kind of experiment: organism not typed. The conditions noted are these: Vero 76.
In data set [34] the test system is Yellow fever virus (YFV).
The subject of data set [35] is SARS-CoV-2. Kind of data set: microbe, parasite or virus in culture. The note with it: Severe acute respiratory syndrome coronavirus 2, Vero 76.
Data set [36] is described as follows: in vitro. The conditions noted are these: human.
In data set [37] the test system is TCRV. As to the kind of experiment: microbe, parasite or virus in culture. The note with it: Mammarenavirus tacaribeense, Vero C1008.
Data set [38] is described as follows: in vitro. The note with it: Syrian hamster.
Data set [39] concerns RSV.
Data set [40] relates to Japanese encephalitis virus (JEV).
The test system of data set [41] is SARS-CoV. As to the kind of experiment: microbe, parasite or virus in culture. The conditions noted are these: Severe acute respiratory syndrome coronavirus, Vero 76.
In data set [42] the test system is dengue virus-2 (DV-2). As to the kind of experiment: microbe, parasite or virus in culture. The conditions noted are these: Huh-7.
The subject of data set [43] is poliovirus-1 (POV-1).
The subject of data set [44] is Zika virus.
Data set [45] concerns enterovirus-68 (EV-68). As to the kind of experiment: organism not typed. The note with it: RD.
Data set [46] deals with influenza A(H5N1). Kind of data set: microbe, parasite or virus in culture. The conditions noted are these: H5N1, MDCK.
Data set [47] deals with Powassan virus (POWV). As to the kind of experiment: microbe, parasite or virus in culture. The note with it: BHK-21.
Data set [48] relates to dengue virus-2 (DV-2). The conditions noted are these: DV-2; SI = CC50/EC50.
Data set [49] deals with T2, SARS-Cov2 RdRp (nsp12-nsp7-nsp8) (Severe acute respiratory syndrome coronavirus 2, UniProt P0DTD1). The class given is biochemical. The note with it: primer extension; analog at 100 uM, printed 100 mM.
The target of data set [50] is mitochondrial DNA polymerase (POLG1) (Homo sapiens, UniProt P54098). Kind of data set: Inhibition of mitochondrial DNA polymerase (POLG1).
Chain of mitochondrial DNA polymerase (POLG1) (P54098 whole entry): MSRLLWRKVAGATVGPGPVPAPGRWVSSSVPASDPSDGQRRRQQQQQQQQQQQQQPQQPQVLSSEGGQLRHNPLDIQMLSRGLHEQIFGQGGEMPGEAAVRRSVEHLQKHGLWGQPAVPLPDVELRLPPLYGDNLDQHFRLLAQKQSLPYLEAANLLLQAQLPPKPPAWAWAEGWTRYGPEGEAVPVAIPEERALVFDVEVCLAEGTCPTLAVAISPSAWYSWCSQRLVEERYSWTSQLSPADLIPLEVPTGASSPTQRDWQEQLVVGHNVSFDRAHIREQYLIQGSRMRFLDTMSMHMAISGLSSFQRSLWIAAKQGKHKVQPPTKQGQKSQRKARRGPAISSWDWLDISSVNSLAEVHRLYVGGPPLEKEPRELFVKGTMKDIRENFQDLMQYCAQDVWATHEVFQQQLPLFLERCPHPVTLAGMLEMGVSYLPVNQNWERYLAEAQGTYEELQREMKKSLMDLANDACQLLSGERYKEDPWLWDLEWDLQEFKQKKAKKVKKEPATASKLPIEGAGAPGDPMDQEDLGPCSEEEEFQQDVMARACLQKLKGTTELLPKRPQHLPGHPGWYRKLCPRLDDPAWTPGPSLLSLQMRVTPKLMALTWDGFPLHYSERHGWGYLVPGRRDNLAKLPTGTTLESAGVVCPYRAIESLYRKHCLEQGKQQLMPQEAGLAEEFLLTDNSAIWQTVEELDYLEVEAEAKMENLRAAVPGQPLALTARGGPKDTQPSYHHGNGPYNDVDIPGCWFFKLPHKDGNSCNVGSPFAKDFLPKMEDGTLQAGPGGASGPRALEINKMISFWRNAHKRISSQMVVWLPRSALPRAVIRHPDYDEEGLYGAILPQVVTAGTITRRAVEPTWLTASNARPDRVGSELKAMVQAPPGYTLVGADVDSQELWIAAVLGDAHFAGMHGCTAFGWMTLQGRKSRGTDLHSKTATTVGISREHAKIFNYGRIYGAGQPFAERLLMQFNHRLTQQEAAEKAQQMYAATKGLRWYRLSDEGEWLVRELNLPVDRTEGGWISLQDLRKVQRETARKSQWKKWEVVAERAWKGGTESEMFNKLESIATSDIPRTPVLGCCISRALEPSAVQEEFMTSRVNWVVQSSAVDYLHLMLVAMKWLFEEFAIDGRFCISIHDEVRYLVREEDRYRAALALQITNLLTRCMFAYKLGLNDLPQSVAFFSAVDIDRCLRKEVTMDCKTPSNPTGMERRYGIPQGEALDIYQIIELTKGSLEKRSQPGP
The target of data set [51] is T2, SARS-Cov2 RdRp (nsp12-nsp7-nsp8). In kind it is biochemical. The note with it: after addition of GTP and CTP (third and fourth nucleotides).
[52] abbreviates: Vero 76 cells without virus, test compounds.

In the case of `NC(=O)c1ncn([C@@H]2O[C@H](COP(=O)(O)O)[C@@H](O)[C@H]2O)n1` [RMP, Ribavirin 5′-monophosphate], in data set [1], the IC50 (as a rule, the midpoint of a concentration-inhibition curve) was 2.6 ± 1.8 µM.

`CCC(CC)COC(=O)[C@H](C)N[P@](=O)(OCC1=CC(O)C(n2ccc(=O)[nH]c2=O)O1)Oc1ccccc1` (stereo partly drawn) [AB23031]: the EC50 (in general, the concentration giving half of the maximal effect) in [2] was 93.8 µM; in data set [5], above 100 µM; in data set [8] it was 0.15 µM; in data set [9], 5.12 µM. The figures for the 90% effect concentration (EC90) in data set [2], in [8] and in data set [9] were above 100 µM, above 150 µM and above 150 µM, respectively. Moreover, the values for the Activity entry in data set [2], in data set [8] and in [9] were “NA (NA (Not Active) SI50 = 0-3.9)”, “HI (key: NA (Not Active) SI50 = 0-3.9; LO (Slightly Active) SI50 = 4-9.9; MOD (Moderately Active) SI50 = 10-19.9; HI (Highly Active) SI50 = ≥20)” and “HI (key: NA (Not Active) SI50 = 0-3.9; LO (Slightly Active) SI50 = 4-9.9; MOD (Moderately Active) SI50 = 10-19.9; HI (Highly Active) SI50 = ≥20)”, respectively. Moreover, the CC50 in data set [3] was 55.4 µM; in [4], above 100 µM; in [7], above 100 µM; in [8], above 150 µM; in [9], above 150 µM. The same molecule showed a concentration for half-maximal inhibition (IC50) in data set [6] above 100 µM. Besides, in [8], the “activity against hCMV (in words)” value is on record as “highly active”. Besides, the “activity against BK virus (in words)” value in [9] is “highly active”.

On to `Nc1ccn([C@@H]2OC(CO)=C[C@H]2O)c(=O)n1` [AB21650, 3′-deoxy-3′,4′-didehydro cytidine], for which the concentration for a half-maximal effect (EC50) in [10], in data set [14], in [15], in data set [17], in data set [19] and in data set [21] was above 2000 µM in each case. Further, the concentration giving a half-maximal response (EC50) in data set [28], in [30], in data set [31], in [32], in data set [33] and in [35] was above 2000 µM each time. The EC50 in data set [37] was above 2000 µM; in data set [41], above 2000 µM; in data set [42] it was above 2000 µM; in data set [45], 910 µM; in data set [46] it was above 2000 µM; in data set [47], above 2000 µM. For the same molecule, the SI in data set [11] (VEEV, SI = CC50/EC50) was determined as 0; in data set [12] it was 0; in data set [13] (SARS-CoV, SI = CC50/EC50), 0; in data set [18] (Ad5, SI = CC50/EC50) it was 0; in data set [20], 0; in data set [22], 0. Besides, the SI came to 0 in data set [23] (H1N1); 0 in data set [24] (TCRV, SI = CC50/EC50); 0 in [25] (RVFV, SI = CC50/EC50); 0 in [26] (influenza A(H5N1), SI = CC50/EC50); 0 in data set [27] (WNV, SI = CC50/EC50); 2 in data set [29] (EV-68, SI = CC50/EC50). For the same molecule, the SI was found to be 0 in data set [34] (YFV, SI = CC50/EC50); 0 in data set [39] (RSV, SI = CC50/EC50); 0 in data set [40] (JEV, SI = CC50/EC50); 0 in data set [43] (POV-1, SI = CC50/EC50); 0 in data set [44] (Zika, SI = CC50/EC50); 0 in data set [48]. The CC50 in data set [11] (setting [52]), in data set [12] (dog), in data set [13] (setting [52]), in [16], in [18] (human) and in data set [23] (dog) was above 2000 µM in each case. Also, the CC50 is above 2000 µM in data set [24] (African green monkey); above 2000 µM in data set [25] (setting [52]); above 2000 µM in [26] (MDCK cells without virus, test compounds); above 2000 µM in data set [27] (African green monkey); 1800 µM in [29] (human); above 2000 µM in [34] (Huh7 cells without virus, test compounds). Moreover, the CC50 in data set [36], in data set [38], in data set [39] (African green monkey), in data set [40] (African green monkey), in [43] (setting [52]) and in data set [44] (African green monkey) was above 2000 µM in each case.

With `O=c1ccn(C2OC(COP(=O)(O)OP(=O)(O)OP(=O)(O)O)=CC2O)c(=O)[nH]1` (stereo not drawn) [ddhUTP, 3′-deoxy-3,4-didehydro-UTP], the “incorporation into RNA by SARS-Cov2 RdRp (in words)” value in data set [49] was “incorporated onto RNA as UTP analog”. Moreover, the “substrate for POLG1 (in words)” value in data set [50] is reported as “poor substrates”. Also, in [51], the “chain termination of RNA synthesis (in words)” value was “caused chain termination of RNA synthesis”.

Consider `CCC(CC)COC(=O)[C@H](C)N[P@](=O)(OCC1=CC(O)C(n2cnc3c(=O)[nH]c(N)nc32)O1)Oc1ccccc1` (stereo partly drawn) [AB23032], for which the EC50 in data set [2] is above 100 µM; in data set [5], above 100 µM; in data set [8], above 150 µM; in data set [9] it was 77.2 µM. The results for the 90% effect concentration (EC90) in data set [2], in data set [8] and in data set [9] were above 100 µM, above 150 µM and 149 µM, respectively. The Activity result in data set [2] is on record as “NA (NA (Not Active) SI50 = 0-3.9)”; in data set [8], “NA (key: NA (Not Active) SI50 = 0-3.9; MOD (Moderately Active) SI50 = 4-9.9; HI (Highly Active) SI50 = ≥10)”; in data set [9], “NA (key: NA (Not Active) SI50 = 0-3.9; MOD (Moderately Active) SI50 = 4-9.9; HI (Highly Active) SI50 = ≥10)”. Also, the CC50 is above 100 µM in data set [4], above 100 µM in data set [7], above 150 µM in data set [8] and above 150 µM in data set [9].
